A short description of data set [1]: Pharmacokinetics of the compound in mice. The class given is in vivo, C57BL/6 (C57) mice. The source says: In this study, C57BL male mice were selected as assay animals, and the LC/MS/MS method was used to quantitatively determine the compound concentration at different time points in the plasma of mice administered intravenously or orally with the assay compound, so as to evaluate pharmacokinetic profile of the assay compound in mice.
C57BL/6 (C57) mice (male, 17-20 g, 7-10 weeks old, from Shanghai lingchang).
A clear solution of the assay compound was intravenously injected into C57 mice via tail (fasted overnight) or administered to C57 mice by gavage (fasted overnight). 200 μL of blood was collected from the saphenous vein at 0.0833, 0.25, 0.5, 1, 2, 4, 8 and 24 h after intravenous administration, and placed in an anticoagulant tube (Jiangsu Kangjian Medical Co., Ltd.) supplemented with EDTA-K2. The mixture was thoroughly vortexed at 4° C. and centrifuged at 3200 g for 10 min. Blood was collected from the saphenous vein at 0.25, 0.5, 1, 2, 4, 6, 8 and 24 h after oral gavage administration, and placed in an anticoagulant tube (Jiangsu Kangjian Medical Co., Ltd.) supplemented with EDTA-K2. The mixture was thoroughly vortexed and centrifuged at 3200 g for 10 min. Blood drug concentration was determined by LC-MS/MS, and relevant pharmacokinetic parameters were calculated with the non-compartmental model Linear/log trapezoidal method using Phoenix WinNonlin 6.3 pharmacokinetic software.

The target of data set [2] is T1, Recombinant human-derived ALK (Homo sapiens, UniProt Q9UM73).
T1 construct: BAG10812.1; 1058-1620 (terminal) amino acids; GST (N); made in house
Kind of data set: Inhibitory activity of compounds against ALK kinase (time-resolved fluorescence resonance energy transfer). The conditions noted are these: 30 μM ATP, 50 nM ULight-poly GT peptide. The format is biochemical. The procedure: The inhibitory activity of the compounds on ALK kinase was detected by time-resolved fluorescence resonance energy transfer method, that is, the ratio of fluorescence signals at 665 nm/615 nm was used to represent the activity of the enzyme.
Assay buffer solution: 50 mM 2-[4-(2-hydroxyethyl)-1-piperazinyl]ethanesulfonic acid buffer solution (HEPES) (pH 7.5), 10 mM MgCl2, 1 mM EDTA 0.01%, polyoxyethylene lauryl ether (Brij 35), 2 mM dithiothreitol (DTT).
Enzyme: Recombinant human-derived ALK (gene accession number: BAG10812.1; 1058-1620 (terminal) amino acids) was expressed with a N-terminal GST fusion protein (90 kDa) using a baculovirus expression system.
Enzyme substrate: 50 nM ULight-poly GT polypeptide.
Detection: europium-labeled anti-phosphotyrosine (PT66) antibody.
1. Compounds dissolved in 100% DMSO were added to 384-well plates by acoustic technique; 2. Recombinant human-derived ALK enzyme and enzyme substrate (50 nM ULight-poly GT peptide) or zymolyte (30 μM ATP) were dissolved in freshly prepared assay buffer; 3. The above ALK enzyme and enzyme substrate in the buffer solution were transferred to reaction wells; 4. Then, the zymolyte in the buffer solution was added to the above reaction wells to initiate the reaction; 5. The plate was incubated at room temperature for 1 hour; 6. The detection mixture (PT66 antibody and EDTA) was added to terminate the reaction, and the mixture was incubated at room temperature for 60 minutes; 7. Then, the plate was read using a microplate reader to obtain the ratio of fluorescence signals at 665 nm/615 nm.
Data analysis: Emission ratio (665 nm/615 nm) in the original data was involved in the calculation of the inhibition rate. The concentration and inhibition rate were analyzed using XLfit software 205 mode (4 Parameters Logistic Model) to obtain IC50 value and curve.

For data set [3], the system named is human lung cancer NCI-H2228 cells subcutaneous xenograft tumor. Kind of data set: In vivo pharmacodynamic study in subcutaneous xenograft tumor NOD SCID mouse model of human lung cancer NCI-H2228 cells. Set-up: species or system NOD SCID mice. The conditions noted are these: 50 mg/kg subcutaneous injection once a day. How it is done: Human lung cancer cell NCI-H2228 (ATCC® CRL-5935™) was cultured in vitro in an adherent monolayer in RPMI 1640 medium supplemented with 10% fetal bovine serum, 100 U/mL penicillin and 100 μg/mL streptomycin in an incubator at 37° C. and 5% CO2. Cells were passaged by routine digestion with trypsin-EDTA twice a week. When the cell saturation was 80%-90% and the number met the requirement, the cells are collected, counted, and inoculated.
NOD SCID mice, female, 6-8 weeks old, weighing 18-22 grams.
0.2 mL (10×10^6 cells) of NCI-H2228 cells (with matrigel, v/v 1:1) were subcutaneously inoculated into the right back of each mouse. The administration by group was started when the average tumor volume reached 171 mm^3. One administration cycle comprised seven days, with administration once a day. The assay compounds were administered by subcutaneous injection for a total of four cycles. The subcutaneous injection doses of the assay compounds WX001 and WX002 were both 50 mg/kg. Tumor diameter was measured twice a week with a vernier caliper, and tumor volume was measured in cubic millimeters and calculated by the following formula: V=0.5a×b^2, where a and b are the long and short diameters of the tumor, respectively. The tumor-inhibitory efficacy of the assay compounds was evaluated by using TGI (%). TGI (%) reflects a tumor growth inhibition rate. TGI (%)=[1−(Average tumor volume at the end of administration of a treatment group−Average tumor volume at the beginning of administration of the treatment group)/(Average tumor volume at the end of treatment of a vehicle control group−Average tumor volume at the beginning of treatment of the vehicle control group)]×100%.
(In general: In xenograft studies the graft and the host belong to different species.)

Setting [4] is: male, C57BL/6, mouse, plasma, intravenous injection (2 mg/kg).

Usually clearance stands for a measure of how efficiently the substance is removed, as volume per time. A higher clearance goes with a high capacity for elimination. One may read the half-life as how long it takes for the measured level to halve. A low value points to fast loss. A word on the bioavailability: it is the share of a dose that reaches the circulation, judged against a reference dose that is usually intravenous. Broadly, the IC50 is the concentration that gives 50% inhibition.

Each structure is given as a SMILES string.

T1 sequence (Q9UM73 1058-1620): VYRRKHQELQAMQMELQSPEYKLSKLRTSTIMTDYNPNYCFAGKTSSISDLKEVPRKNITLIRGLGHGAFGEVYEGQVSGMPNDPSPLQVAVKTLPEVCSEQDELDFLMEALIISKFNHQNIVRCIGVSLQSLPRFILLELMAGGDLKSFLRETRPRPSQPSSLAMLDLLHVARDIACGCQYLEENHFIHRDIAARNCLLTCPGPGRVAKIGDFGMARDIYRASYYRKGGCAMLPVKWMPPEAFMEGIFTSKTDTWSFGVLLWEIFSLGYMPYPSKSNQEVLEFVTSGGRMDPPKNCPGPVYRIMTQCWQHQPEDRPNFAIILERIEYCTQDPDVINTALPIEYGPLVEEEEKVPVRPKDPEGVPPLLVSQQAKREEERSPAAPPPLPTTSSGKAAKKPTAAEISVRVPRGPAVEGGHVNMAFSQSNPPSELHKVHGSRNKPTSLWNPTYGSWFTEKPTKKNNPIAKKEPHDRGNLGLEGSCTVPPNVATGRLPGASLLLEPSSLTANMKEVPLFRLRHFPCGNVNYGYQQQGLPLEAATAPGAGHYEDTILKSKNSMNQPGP

With `Cc1cc(Nc2ncc(Cl)c(Nc3ccccc3S(=O)(=O)C(C)C)n2)c(OC(C)C)cc1C1CCN(CC(=O)NCCOc2ccc3occ(C4CCC(=O)NC4=O)c3c2)CC1` (centres unmarked) [WX001], the “Area under the curve (0-inf)” value in data set [1] (intravenous injection (2 mg/kg)) turned out to be 3.69 µM·h. In data set [1] (setting [4]), this molecule gave a clearance of 10.3 mL/min/kg and a half-life of 1.74 h. In data set [1] (male, C57BL/6, mouse, plasma, oral (10 mg/kg), read-out: Bioavailability F), the bioavailability was found to be 11.7%. In data set [1] (oral (10 mg/kg)), the “Area under the curve (0-inf)” value turned out to be 2.33 µM·h, the Peak concentration was determined as 0.68 µM and the Time to peak is recorded as 0.75 h. Moreover, the IC50 in data set [2] was found to be 21.8 nM. In addition, the “Tumor volume (Day 1)” value in data set [3] (Day 1) was determined as 172 ± 12 mm^3. Further, in data set [3] (Day 28), the “TGI (Day 28)” value is 111.22% and the “Tumor volume (Day 28)” value is 102 ± 5 mm^3.

Values taken from patent US20230158152A1, “PROTEOLYSIS REGULATOR AND METHOD FOR USING SAME” (MEDSHINE DISCOVERY INC., priority 2020, published 2023).
